Experimental data from patent US6022696A, “Methods of identifying agonists or antagonists of angiotensin IV” (Washington State University Research Foundation, priority 1998, dated 2000).

Assay: Stability of angiotensin peptides in binding assay buffer / assay conditions
Assay type: physicochemical
Details: 4 h at 37° C., reverse phase HPLC

## CC[C@H](C)[C@H](NC(=O)[C@H](Cc1ccc(O)cc1)NC(=O)[C@@H](N)C(C)C)C(=O)N[C@@H](Cc1cnc[nH]1)C(=O)N1CCC[C@H]1C(=O)N[C@@H](Cc1ccccc1)C(=O)O [AIV, Val1 Tyr2 Ile3 His4 Pro5 Phe6]
  hydrolysis in binding buffer: less than 10%
